Type in all cases: in vivo
In experiment [1] the test system is Lolium perenne (LOLPE). Kind of experiment: Example A pre-emergence herbicidal activity, glasshouse pot test. Particulars: 480 h, rate 500 g/ha, evaluated 20 days later, 100=total damage to plant, 0=no damage to plant. The protocol: (§1) Seeds of a variety of test species were sown in standard soil in pots. After cultivation for one day (pre-emergence) or after 10 days cultivation (post-emergence) under controlled conditions in a glasshouse, the plants were sprayed with an aqueous spray solution derived from the formulation of the technical active ingredient in 0.6 ml acetone and 45 ml formulation solution containing 10.6% Emulsogen EL (Registry number 61791-12-6), 42.2% N-methylpyrrolidone, 42.2% dipropylene glycol monomethyl ether (Registry number 34590-94-8) and 0.2% X-77 (Registry number 11097-66-8). The test plants were then grown in a greenhouse under optimum conditions until, 15 days later for post-emergence and 20 days for pre-emergence, the test was evaluated (100=total damage to plant; 0=no damage to plant). Alopecurus myosuroides (ALOMY), Avena fatua (AVEFA), Lolium perenne (LOLPE), Setaria faberi (SETFA), Digitaria sanguinalis (DIGSA), Echinochloa crus-galli (ECHCG) Pre-Emergence Activity

Experiment [2] concerns Digitaria sanguinalis (DIGSA). Described as above. The following applies: 480 h, rate 500 g/ha, evaluated 20 days later, 100=total damage to plant, 0=no damage to plant. How it is done: as §1
Experiment [3] deals with Echinochloa crus-galli (ECHCG). The description is as above. The following applies: 480 h, rate 500 g/ha, evaluated 20 days later, 100=total damage to plant, 0=no damage to plant. How it is done:
as §1

Experiment [4] relates to Avena fatua (AVEFA). The description is as above. Particulars: 480 h, rate 500 g/ha, evaluated 20 days later, 100=total damage to plant, 0=no damage to plant. The protocol: as §1
Experiment [5] relates to Alopecurus myosuroides (ALOMY). Described as above. The following applies: 480 h, rate 500 g/ha, evaluated 20 days later, 100=total damage to plant, 0=no damage to plant. How it is done:
as §1

Experiment [6] concerns Setaria faberi (SETFA). The description is as above. The following applies: 480 h, rate 500 g/ha, evaluated 20 days later, 100=total damage to plant, 0=no damage to plant. How it is done: as §1
In experiment [7] the test system is Lolium perenne (LOLPE). Kind of experiment: Example A post-emergence herbicidal activity, glasshouse pot test. The following applies: 360 h, evaluated 15 days after spraying, read-out: herbicidal damage LOLPE (100=total damage to plant; 0=no damage to plant); for pest or weed control at 500 g/ha: rate 500 g/ha; for pest or weed control at 125 g/ha: rate 125 g/ha. The protocol: as §1, with “Post Emergency” for “Pre-Emergence”

Experiment [8] relates to Digitaria sanguinalis (DIGSA). The description is as above. The following applies: 360 h, evaluated 15 days after spraying, read-out: herbicidal damage DIGSA (100=total damage to plant; 0=no damage to plant); for pest or weed control at 500 g/ha: rate 500 g/ha; for pest or weed control at 125 g/ha: rate 125 g/ha. How it is done: as §1, with “Post Emergency” for “Pre-Emergence”

Experiment [9] deals with Echinochloa crus-galli (ECHCG). The description is as above. The following applies: 360 h, evaluated 15 days after spraying, read-out: herbicidal damage ECHCG (100=total damage to plant; 0=no damage to plant); for pest or weed control at 500 g/ha: rate 500 g/ha; for pest or weed control at 125 g/ha: rate 125 g/ha. How it is done:
as §1, with “Post Emergency” for “Pre-Emergence”

The subject of experiment [10] is Avena fatua (AVEFA). Described as above. Particulars: 360 h, evaluated 15 days after spraying, read-out: herbicidal damage AVEFA (100=total damage to plant; 0=no damage to plant); for pest or weed control at 500 g/ha: rate 500 g/ha; for pest or weed control at 125 g/ha: rate 125 g/ha. How it is done:
as §1, with “Post Emergency” for “Pre-Emergence”

Experiment [11] concerns Alopecurus myosuroides (ALOMY). The experiment is described as above. Particulars: 360 h, evaluated 15 days after spraying, read-out: herbicidal damage ALOMY (100=total damage to plant; 0=no damage to plant); for pest or weed control at 500 g/ha: rate 500 g/ha; for pest or weed control at 125 g/ha: rate 125 g/ha. The protocol: as §1, with “Post Emergency” for “Pre-Emergence”

The subject of experiment [12] is Setaria faberi (SETFA). The description is as above. The following applies: 360 h, evaluated 15 days after spraying, read-out: herbicidal damage SETFA (100=total damage to plant; 0=no damage to plant); for pest or weed control at 500 g/ha: rate 500 g/ha; for pest or weed control at 125 g/ha: rate 125 g/ha. How it is done:
as §1, with “Post Emergency” for “Pre-Emergence”

In the case of `CCc1cc(C)cc(CC)c1C1=C(O)CC(CC2OCCCO2)CC1=O` (centres unmarked) [Compound A-7], the pest or weed control at 500 g/ha in the experiment with Lolium perenne (LOLPE) [1] came out at 100%; in [2], 100%; in experiment [3], 100%; in the experiment with Avena fatua (AVEFA) [4], 100%; in experiment [5] it was 100%; in the experiment on Setaria faberi (SETFA) [6], 80%. The pest or weed control at 500 g/ha in the experiment on Lolium perenne (LOLPE) [7] was 90%; in experiment [8], 80%; in experiment [9], 100%; in the experiment on Avena fatua (AVEFA) [10], 100%; in experiment [11], 90%; with Setaria faberi (SETFA) [12], 80%.

Turning to `CCc1ccc(-c2ccc(Cl)cc2)cc1C1=C(O)CC(CC2CCOC2)CC1=O` (centres unmarked) [Compound A-4], the pest or weed control at 500 g/ha with Lolium perenne (LOLPE) [1] is 30%; in [2], 70%; in experiment [3], 100%; in the experiment with Avena fatua (AVEFA) [4], 40%; in experiment [5], 60%; with Setaria faberi (SETFA) [6], 80%. Also, the pest or weed control at 500 g/ha in the experiment with Lolium perenne (LOLPE) [7] was 70%; in experiment [8] it was 100%; in experiment [9], 100%; in the experiment on Avena fatua (AVEFA) [10], 70%; in experiment [11], 80%; with Setaria faberi (SETFA) [12], 100%.

With `CCc1cc(CC)c(C2=C(O)CC(C(C)C3CCOCC3)CC2=O)c(CC)c1` (centres unmarked) [Compound A-12], the pest or weed control at 500 g/ha was determined as 100% in the experiment with Lolium perenne (LOLPE) [1]; 70% in [2]; 70% in experiment [3]; 40% with Avena fatua (AVEFA) [4]; 60% in the experiment with Setaria faberi (SETFA) [6]; 80% with Lolium perenne (LOLPE) [7]. The pest or weed control at 500 g/ha in [8] is 70%; in experiment [9] it was 80%; in the experiment with Avena fatua (AVEFA) [10], 80%; in experiment [11], 80%; in the experiment with Setaria faberi (SETFA) [12] it was 70%.

Regarding `CCc1cc(C)cc(CC)c1C1=C(O)CC(CC2CCS(=O)(=O)CC2)CC1=O` (centres unmarked) [Compound A-17], the pest or weed control at 500 g/ha (in the experiment with Lolium perenne (LOLPE) [1]; in experiment [2]; in experiment [3]; with Avena fatua (AVEFA) [4]; in [5]; in the experiment with Setaria faberi (SETFA) [6]) was 100% each time. The pest or weed control at 125 g/ha in the experiment with Lolium perenne (LOLPE) [7] came to 90%; in experiment [8], 80%; in experiment [9], 100%; with Avena fatua (AVEFA) [10], 100%; in experiment [11], 90%; with Setaria faberi (SETFA) [12] it was 50%.

For `CCc1cc(C)cc(CC)c1C1=C(O)CC(C(C)C2CCOCC2)CC1=O` (centres unmarked) [Compound A-11], the pest or weed control at 500 g/ha was 100% in the experiment on Lolium perenne (LOLPE) [1]; 70% in [3]; 100% in the experiment on Avena fatua (AVEFA) [4]; 100% in [5]; 90% in the experiment on Lolium perenne (LOLPE) [7]; 90% in experiment [8]. In addition, the pest or weed control at 500 g/ha in experiment [9] was found to be 100%; with Avena fatua (AVEFA) [10] it was 90%; in experiment [11], 100%; in the experiment on Setaria faberi (SETFA) [12], 80%.

Take `Cc1cc(C)c(C2=C(O)CC(C(C)C3CCOCC3)CC2=O)c(C)c1` (centres unmarked) [Compound A-10]: the pest or weed control at 500 g/ha was 70% in the experiment with Lolium perenne (LOLPE) [1]; 60% in [2]; 80% in experiment [3]; 50% in the experiment on Avena fatua (AVEFA) [4]; 50% in experiment [5]; 60% in the experiment on Setaria faberi (SETFA) [6]. Moreover, the pest or weed control at 500 g/ha was 60% in the experiment with Lolium perenne (LOLPE) [7]; 70% in experiment [8]; 50% in experiment [9]; 80% in the experiment on Avena fatua (AVEFA) [10]; 80% in experiment [11]; 50% with Setaria faberi (SETFA) [12].

As for `CCc1cc(C)cc(CC)c1C1=C(O)CC(CC2OCC(C)(C)CO2)CC1=O` (centres unmarked) [Compound A-8], the pest or weed control at 500 g/ha in the experiment on Lolium perenne (LOLPE) [1] came to 100%; in experiment [2] it was 100%; in experiment [3] it was 70%; in the experiment with Avena fatua (AVEFA) [4], 50%; in experiment [5] it was 100%; with Setaria faberi (SETFA) [6], 70%. The pest or weed control at 500 g/ha with Lolium perenne (LOLPE) [7] stood at 80%; in experiment [8], 70%; in [9], 100%; in the experiment with Avena fatua (AVEFA) [10], 50%; in experiment [11], 60%; with Setaria faberi (SETFA) [12] it was 70%.

For the molecule `CCc1cc(C)cc(CC)c1C1=C(O)CC(C(C)C2CCOC2)CC1=O` (centres unmarked) [Compound A-18], the pest or weed control at 500 g/ha in the experiment on Lolium perenne (LOLPE) [1] was found to be 100%; in experiment [2], 100%; in [3], 100%; in the experiment with Avena fatua (AVEFA) [4], 100%; in experiment [5], 90%; in the experiment with Setaria faberi (SETFA) [6], 100%. Moreover, the pest or weed control at 125 g/ha worked out at 100% in the experiment with Lolium perenne (LOLPE) [7]; 80% in experiment [8]; 100% in [9]; 90% with Avena fatua (AVEFA) [10]; 100% in experiment [11]; 50% with Setaria faberi (SETFA) [12].

Turning to `CCc1ccc(-c2ccc(Cl)cc2)cc1C1=C(O)CC(CC2CCOCC2)CC1=O` (centres unmarked) [Compound A-20], the pest or weed control at 500 g/ha in the experiment with Lolium perenne (LOLPE) [1] was found to be 40%; in experiment [2] it was 40%; in [3], 100%; in the experiment on Avena fatua (AVEFA) [4] it was 10%; in experiment [5] it was 50%; with Setaria faberi (SETFA) [6], 70%. The pest or weed control at 125 g/ha in the experiment with Lolium perenne (LOLPE) [7] was 40%; in [8] it was 100%; in [9] it was 100%; in the experiment with Avena fatua (AVEFA) [10], 60%; in experiment [11], 40%; with Setaria faberi (SETFA) [12], 80%.

For the molecule `CCc1cc(C)cc(CC)c1C1=C(O)CC(CC2CC[S+]([O-])CC2)CC1=O` (centres unmarked) [Compound A-16], the pest or weed control at 500 g/ha was determined as 100% with Lolium perenne (LOLPE) [1]; 100% in experiment [2]; 100% in experiment [3]; 90% with Avena fatua (AVEFA) [4]; 100% in [5]; 90% with Lolium perenne (LOLPE) [7]. For the same molecule, the pest or weed control at 500 g/ha in experiment [8] came to 100%; in experiment [9] it was 70%; with Avena fatua (AVEFA) [10] it was 90%; in experiment [11], 60%; in the experiment on Setaria faberi (SETFA) [12], 80%.
